Two molecules from paper PMC9851200, “Multiparameter phenotypic screening for endogenous TFEB and TFE3 translocation identifies novel chemical series modulating lysosome function” (Autophagy, 2022) can be followed below.

Format in all cases: binding
Experiment [1] concerns the target kinases (KINOMEscan panel) (Homo sapiens, UniProt Q13557). To be noted: kinase CAMK2D; NEW KINOMEscan.
Experiment [2] deals with T1, kinases (KINOMEscan panel) (Homo sapiens, UniProt Q9UQB9).
T1 sequence (Q9UQB9 1-309): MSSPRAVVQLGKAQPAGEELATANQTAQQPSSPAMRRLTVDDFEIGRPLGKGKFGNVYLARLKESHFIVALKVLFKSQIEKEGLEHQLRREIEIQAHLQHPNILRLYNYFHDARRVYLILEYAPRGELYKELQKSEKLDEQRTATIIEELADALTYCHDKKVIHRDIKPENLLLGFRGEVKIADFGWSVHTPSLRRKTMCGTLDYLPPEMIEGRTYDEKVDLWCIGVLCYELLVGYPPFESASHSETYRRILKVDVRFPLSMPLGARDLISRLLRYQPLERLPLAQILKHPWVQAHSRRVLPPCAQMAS
The following applies: AURKC; NEW KINOMEscan.

Experiment [3] concerns the target T2, kinases (KINOMEscan panel) (Homo sapiens, UniProt O00329).
T2 sequence (O00329 1-1044): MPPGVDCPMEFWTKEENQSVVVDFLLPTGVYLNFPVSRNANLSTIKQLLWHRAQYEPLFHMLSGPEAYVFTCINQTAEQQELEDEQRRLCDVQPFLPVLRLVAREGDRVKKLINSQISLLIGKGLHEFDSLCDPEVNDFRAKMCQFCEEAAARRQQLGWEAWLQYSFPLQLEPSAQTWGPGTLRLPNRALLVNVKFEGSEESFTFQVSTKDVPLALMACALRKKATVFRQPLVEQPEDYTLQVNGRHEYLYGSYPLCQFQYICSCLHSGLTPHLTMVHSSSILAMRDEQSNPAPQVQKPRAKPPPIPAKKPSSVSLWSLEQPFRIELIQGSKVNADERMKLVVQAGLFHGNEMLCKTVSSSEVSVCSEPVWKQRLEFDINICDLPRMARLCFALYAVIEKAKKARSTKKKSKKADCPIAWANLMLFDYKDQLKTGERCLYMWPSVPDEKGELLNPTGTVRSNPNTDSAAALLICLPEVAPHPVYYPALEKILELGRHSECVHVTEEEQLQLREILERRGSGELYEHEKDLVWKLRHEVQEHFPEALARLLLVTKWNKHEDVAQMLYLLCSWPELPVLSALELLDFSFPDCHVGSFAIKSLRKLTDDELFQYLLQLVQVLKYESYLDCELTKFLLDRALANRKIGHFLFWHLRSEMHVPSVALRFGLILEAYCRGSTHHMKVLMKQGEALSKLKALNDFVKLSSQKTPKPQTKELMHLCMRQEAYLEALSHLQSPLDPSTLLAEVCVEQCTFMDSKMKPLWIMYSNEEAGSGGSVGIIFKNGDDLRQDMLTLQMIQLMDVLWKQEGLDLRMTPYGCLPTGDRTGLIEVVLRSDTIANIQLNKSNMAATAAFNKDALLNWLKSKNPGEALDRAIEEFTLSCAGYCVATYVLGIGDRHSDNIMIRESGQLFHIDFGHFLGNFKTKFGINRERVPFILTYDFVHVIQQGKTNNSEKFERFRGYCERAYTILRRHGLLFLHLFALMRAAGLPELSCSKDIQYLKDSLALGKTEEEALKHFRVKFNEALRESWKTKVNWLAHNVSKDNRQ
To be noted: NEW KINOMEscan.

Experiment [4] addresses kinases (KINOMEscan panel) (Homo sapiens, UniProt Q8NEV4). To be noted: kinase MYO3A; NEW KINOMEscan.
Experiment [5] addresses kinases (KINOMEscan panel) (Homo sapiens, UniProt Q14680). To be noted: kinase MELK; NEW KINOMEscan.
Experiment [6] has as its target kinases (KINOMEscan panel) (Homo sapiens, UniProt Q13177). To be noted: PAK2; NEW KINOMEscan.
Experiment [7] deals with T3, kinases (KINOMEscan panel) (Homo sapiens, UniProt O14976).
T3 sequence (O14976 1-1311): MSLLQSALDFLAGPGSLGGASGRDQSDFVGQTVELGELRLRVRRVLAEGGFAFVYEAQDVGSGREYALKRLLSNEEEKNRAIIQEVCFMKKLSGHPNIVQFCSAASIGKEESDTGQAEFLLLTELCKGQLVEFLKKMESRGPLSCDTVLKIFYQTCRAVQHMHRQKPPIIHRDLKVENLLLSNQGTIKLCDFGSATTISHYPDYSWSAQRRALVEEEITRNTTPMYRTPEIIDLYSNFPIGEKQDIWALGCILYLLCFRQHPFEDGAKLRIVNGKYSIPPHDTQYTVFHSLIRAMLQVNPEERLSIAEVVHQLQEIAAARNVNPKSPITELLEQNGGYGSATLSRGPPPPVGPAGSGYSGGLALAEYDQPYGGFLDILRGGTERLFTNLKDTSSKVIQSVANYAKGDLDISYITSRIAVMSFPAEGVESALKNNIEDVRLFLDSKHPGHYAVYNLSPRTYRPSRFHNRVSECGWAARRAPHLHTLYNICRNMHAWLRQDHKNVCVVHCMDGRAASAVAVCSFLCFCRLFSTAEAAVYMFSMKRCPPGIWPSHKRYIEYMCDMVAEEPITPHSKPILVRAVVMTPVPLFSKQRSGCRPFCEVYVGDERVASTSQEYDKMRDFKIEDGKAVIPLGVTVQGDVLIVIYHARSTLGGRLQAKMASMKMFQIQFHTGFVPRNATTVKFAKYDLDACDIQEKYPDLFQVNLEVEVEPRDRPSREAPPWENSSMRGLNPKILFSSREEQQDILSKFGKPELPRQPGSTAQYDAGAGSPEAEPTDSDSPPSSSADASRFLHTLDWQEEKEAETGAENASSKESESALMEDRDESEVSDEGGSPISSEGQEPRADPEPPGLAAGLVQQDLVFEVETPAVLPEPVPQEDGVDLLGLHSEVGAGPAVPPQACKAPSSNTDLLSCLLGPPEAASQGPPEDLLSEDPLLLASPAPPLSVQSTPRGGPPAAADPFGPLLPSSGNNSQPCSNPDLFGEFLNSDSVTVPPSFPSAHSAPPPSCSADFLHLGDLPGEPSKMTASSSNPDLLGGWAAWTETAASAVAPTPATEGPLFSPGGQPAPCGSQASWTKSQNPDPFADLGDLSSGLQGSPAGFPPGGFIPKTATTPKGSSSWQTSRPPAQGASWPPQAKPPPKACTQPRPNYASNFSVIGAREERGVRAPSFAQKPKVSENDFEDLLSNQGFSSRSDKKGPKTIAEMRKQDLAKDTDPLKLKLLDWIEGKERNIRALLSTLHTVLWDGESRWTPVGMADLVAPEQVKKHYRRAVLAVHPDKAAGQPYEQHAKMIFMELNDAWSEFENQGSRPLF
To be noted: kinase GAK; NEW KINOMEscan.

kinases (KINOMEscan panel) (Homo sapiens, UniProt Q8NEV4), sequence (Q8NEV4 whole entry): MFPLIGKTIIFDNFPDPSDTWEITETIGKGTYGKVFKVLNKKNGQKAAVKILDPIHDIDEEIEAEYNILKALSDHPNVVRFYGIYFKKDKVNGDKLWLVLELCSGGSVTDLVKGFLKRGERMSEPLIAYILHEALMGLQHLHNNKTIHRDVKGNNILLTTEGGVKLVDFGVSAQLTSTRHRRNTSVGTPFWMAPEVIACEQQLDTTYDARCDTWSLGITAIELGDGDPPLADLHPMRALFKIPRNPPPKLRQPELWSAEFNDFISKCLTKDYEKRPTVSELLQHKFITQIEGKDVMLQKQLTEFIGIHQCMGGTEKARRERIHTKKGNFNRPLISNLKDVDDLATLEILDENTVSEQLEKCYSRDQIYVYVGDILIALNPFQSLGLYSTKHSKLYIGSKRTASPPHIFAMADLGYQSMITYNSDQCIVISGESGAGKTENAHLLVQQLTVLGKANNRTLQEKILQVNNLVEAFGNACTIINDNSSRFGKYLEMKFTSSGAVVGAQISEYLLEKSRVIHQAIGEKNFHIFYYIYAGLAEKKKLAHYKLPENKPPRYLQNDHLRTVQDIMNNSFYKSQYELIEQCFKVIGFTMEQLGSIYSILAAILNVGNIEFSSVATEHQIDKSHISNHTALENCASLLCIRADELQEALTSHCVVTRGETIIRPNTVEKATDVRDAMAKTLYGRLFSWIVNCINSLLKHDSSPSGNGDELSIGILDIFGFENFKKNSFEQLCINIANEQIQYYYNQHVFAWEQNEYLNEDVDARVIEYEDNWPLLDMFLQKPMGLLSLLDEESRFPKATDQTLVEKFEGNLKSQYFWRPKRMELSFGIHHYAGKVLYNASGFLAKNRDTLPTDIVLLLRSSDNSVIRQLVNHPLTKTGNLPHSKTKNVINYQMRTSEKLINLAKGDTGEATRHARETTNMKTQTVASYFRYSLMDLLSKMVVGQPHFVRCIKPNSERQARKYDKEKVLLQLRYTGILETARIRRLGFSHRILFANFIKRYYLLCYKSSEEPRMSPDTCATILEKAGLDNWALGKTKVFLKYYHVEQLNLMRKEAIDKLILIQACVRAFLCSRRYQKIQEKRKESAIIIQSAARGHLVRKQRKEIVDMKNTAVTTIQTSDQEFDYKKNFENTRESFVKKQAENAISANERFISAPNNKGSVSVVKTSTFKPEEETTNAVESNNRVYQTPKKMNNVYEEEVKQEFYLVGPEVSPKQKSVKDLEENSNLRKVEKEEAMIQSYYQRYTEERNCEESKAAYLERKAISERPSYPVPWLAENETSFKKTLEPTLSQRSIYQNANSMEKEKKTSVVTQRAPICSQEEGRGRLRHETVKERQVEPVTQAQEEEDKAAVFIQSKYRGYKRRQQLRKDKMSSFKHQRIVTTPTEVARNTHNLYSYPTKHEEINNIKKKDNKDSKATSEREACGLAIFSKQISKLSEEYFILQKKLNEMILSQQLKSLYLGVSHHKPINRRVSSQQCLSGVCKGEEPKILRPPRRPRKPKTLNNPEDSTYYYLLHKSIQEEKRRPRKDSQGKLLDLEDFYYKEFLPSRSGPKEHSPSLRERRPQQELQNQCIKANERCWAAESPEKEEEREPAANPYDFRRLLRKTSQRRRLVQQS
kinases (KINOMEscan panel) (Homo sapiens, UniProt Q13177), sequence (Q13177 whole entry): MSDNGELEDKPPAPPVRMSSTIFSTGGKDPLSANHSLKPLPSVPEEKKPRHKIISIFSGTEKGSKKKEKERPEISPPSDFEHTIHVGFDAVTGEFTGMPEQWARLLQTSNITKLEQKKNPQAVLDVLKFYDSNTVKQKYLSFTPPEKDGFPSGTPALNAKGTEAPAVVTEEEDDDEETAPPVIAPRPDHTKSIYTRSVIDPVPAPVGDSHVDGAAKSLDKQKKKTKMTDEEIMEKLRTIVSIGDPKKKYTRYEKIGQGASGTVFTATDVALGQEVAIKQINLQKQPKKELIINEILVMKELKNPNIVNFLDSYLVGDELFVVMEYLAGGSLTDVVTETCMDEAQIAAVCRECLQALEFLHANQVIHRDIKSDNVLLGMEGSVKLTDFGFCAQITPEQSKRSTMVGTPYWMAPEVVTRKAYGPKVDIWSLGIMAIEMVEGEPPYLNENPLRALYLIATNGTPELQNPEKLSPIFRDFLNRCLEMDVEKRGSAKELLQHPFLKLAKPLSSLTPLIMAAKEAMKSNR
kinases (KINOMEscan panel) (Homo sapiens, UniProt Q14680), sequence (Q14680 whole entry): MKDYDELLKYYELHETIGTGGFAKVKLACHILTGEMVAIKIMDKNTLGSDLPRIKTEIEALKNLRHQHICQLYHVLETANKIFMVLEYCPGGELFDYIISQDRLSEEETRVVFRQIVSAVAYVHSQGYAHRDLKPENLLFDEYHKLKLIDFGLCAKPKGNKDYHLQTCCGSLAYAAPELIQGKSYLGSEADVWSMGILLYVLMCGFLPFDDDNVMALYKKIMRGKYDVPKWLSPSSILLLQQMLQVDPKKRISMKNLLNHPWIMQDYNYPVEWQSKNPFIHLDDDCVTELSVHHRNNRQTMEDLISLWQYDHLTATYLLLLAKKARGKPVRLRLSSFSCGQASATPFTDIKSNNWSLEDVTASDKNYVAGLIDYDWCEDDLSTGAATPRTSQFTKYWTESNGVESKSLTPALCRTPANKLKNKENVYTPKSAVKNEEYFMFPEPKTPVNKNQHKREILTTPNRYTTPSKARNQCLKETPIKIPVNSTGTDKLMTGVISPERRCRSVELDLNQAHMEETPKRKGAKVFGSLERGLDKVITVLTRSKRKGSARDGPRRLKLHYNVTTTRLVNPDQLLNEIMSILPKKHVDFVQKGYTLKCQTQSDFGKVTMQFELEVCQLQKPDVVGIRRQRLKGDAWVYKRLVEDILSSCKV
kinases (KINOMEscan panel) (Homo sapiens, UniProt Q13557), sequence (Q13557 whole entry): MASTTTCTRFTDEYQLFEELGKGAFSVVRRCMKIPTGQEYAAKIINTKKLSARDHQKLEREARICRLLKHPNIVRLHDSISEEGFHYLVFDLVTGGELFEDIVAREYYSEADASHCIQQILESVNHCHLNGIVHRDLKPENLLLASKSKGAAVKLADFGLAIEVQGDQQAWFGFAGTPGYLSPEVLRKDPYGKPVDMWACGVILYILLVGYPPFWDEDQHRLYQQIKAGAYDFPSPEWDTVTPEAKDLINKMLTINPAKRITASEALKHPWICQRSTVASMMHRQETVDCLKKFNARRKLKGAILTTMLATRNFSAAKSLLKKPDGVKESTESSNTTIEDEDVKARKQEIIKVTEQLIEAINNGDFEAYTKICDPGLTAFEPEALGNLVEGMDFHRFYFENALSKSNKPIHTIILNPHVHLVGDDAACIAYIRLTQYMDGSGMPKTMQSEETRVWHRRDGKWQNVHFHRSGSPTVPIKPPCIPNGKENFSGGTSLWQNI

`Cc1cccc(-c2nc(Nc3ccc4nn(C)cc4c3)c3ccccc3n2)n1` [NK167]: the “KINOMEscan CAMK2D” value in experiment [1] stood at 0. In addition, the “KINOMEscan AURKC” value in experiment [2] is 0. Besides, the “KINOMEscan PIK3CD” value in experiment [3] is 0. In addition, the “KINOMEscan MYO3A” value in experiment [4] is 0. In addition, in experiment [5], the “KINOMEscan MELK” value was 0. For the same molecule, the “KINOMEscan PAK2” value in experiment [6] is given as 0. The “KINOMEscan GAK” value in experiment [7] amounted to 0.
As to `Cc1cccc(-c2nc(N(C)c3ccc4ncsc4c3)c3ccccc3n2)n1` [NK-161], the “KINOMEscan CAMK2D” value in experiment [1] was determined as 0. Moreover, in experiment [2], the “KINOMEscan AURKC” value worked out at 0. Besides, the “KINOMEscan PIK3CD” value in experiment [3] amounted to 2. Besides, the “KINOMEscan MYO3A” value in experiment [4] amounted to 0. Also, the “KINOMEscan MELK” value in experiment [5] was determined as 2. In addition, the “KINOMEscan PAK2” value in experiment [6] was determined as 0. Moreover, in experiment [7], the “KINOMEscan GAK” value is on record as 0.
